The record followed here is patent US7045343B2, “Sterilization indicator test packs” (3M Innovative Properties Company, priority 1998, dated 2006).

Assay [1] has as its system enzyme associated with Bacillus stearothermophilus spores. Put plainly: Rapid enzyme fluorescence readout of dual rapid readout indicators after prevacuum steam sterilization. It counts as biochemical. Conditions: 4-pulse prevacuum steam 121° C. Summed up: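 This is a rapid enzyme test in which spore-associated enzyme activity is detected by fluorescence. Spores coated with chemicals were dried on 5×25 mm paper strips for 16 hours at 37° C. They were loaded into indicators that carried 4-methylumbelliferyl-alpha-D-glucoside substrate, with untreated spores serving as controls. After 4-pulse prevacuum steam exposure at 121° C, with vacuum at 0.075–0.085 bar, the substrate ampoules were crushed and the indicators were incubated at 60° C and read with an autoreader.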

Assay [2] concerns Bacillus stearothermophilus spores. As to the kind of experiment: Spore outgrowth (color change) of indicators after prevacuum steam sterilization. Conditions: 4-pulse prevacuum steam 121° C. Type of assay: cell-based. Summed up: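 Self-contained indicators held coated spore strips, a polypropylene microfiber barrier and a crushable inner container. That container held peptone, L-alanine, 4-methylumbelliferyl-alpha-D-glucoside and bromocresol purple at pH 7.6. Indicators sat in metal trays in a Getinge sterilizer running pulses of 0.075–0.085 bar vacuum and steam to 1.00 bar at 121° C. Incubation at 60° C followed, and yellow color at 168 hours scored spore outgrowth.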

The test system of assay [3] is enzyme associated with Bacillus stearothermophilus spores. As to the kind of experiment: Rapid enzyme fluorescence readout of indicators after hydrogen peroxide plasma sterilization. Type of assay: biochemical. Conditions: for FLUORESCENCE - PERCENT POSITIVE 1 HR / FLUORESCENCE - PERCENT POSITIVE 2 HR / FLUORESCENCE - PERCENT POSITIVE 3 HR / FLUORESCENCE - PERCENT POSITIVE 4 HR / FLUORESCENCE - PERCENT POSITIVE 5 HR: 1–22 min diffusion. As for the experimental part: (§1) Sterilization indicators for Examples 6–9 were prepared as described above with the exception that closure member 22 of the sterilization indicator was constructed of TYVEK™ high-density polyethylene fiber material, commercially available from E.I. du Pont de Nemours and Co., Wilmington, Del.
(§2) Sterilization indicators were made as described above with spores that had been coated with each of the chemicals and concentrations listed in Table 6. The indicators were placed in instrument trays and exposed to a hydrogen peroxide plasma sterilization procedure at 45–55° C. in a STERRAD™ 100SI GMP Sterilizer, obtained from Advanced Sterilization Products Co., Irvine, Calif. During the sterilization procedure a vacuum was drawn in the sterilization chamber for 5–6 minutes until the pressure was reduced to 300 mTorr. A 1.8 ml aliquot of an aqueous solution of 58–60% hydrogen peroxide was then injected into the sterilization chamber over a period of about 6 minutes, yielding an empty chamber concentration of […] hydrogen peroxide, and hydrogen peroxide vapor was allowed to diffuse throughout the chamber for 1–22 minutes at 6–10 Torr. A vacuum was then drawn, reducing the pressure to 500 mTorr and removing all detectable hydrogen peroxide vapor from the chamber.
(§3) After exposure to the sterilization procedure, the indicators were removed from the sterilizer and the inner containers containing the enzyme substrate and nutrient medium were crushed. The indicators were then incubated at 60° C. and examined for fluorescence every hour for 5 hours using a 3M™ ATTEST™ Model 190 Rapid Autoreader, commercially available from 3M Company, St. Paul, Minn. Additionally, spore growth, as indicated by a color change from purple to yellow, was determined visually after 168 hours of incubation.
(§4) The number of growth positive indicators detected after 168 hours of incubation is recorded in Table 6.
as §2, with “7.” for “6.”
as §2, with “8.” for “6.”, “chamber. […]” for “chamber.”

Assay [4] relates to Bacillus stearothermophilus spores. As to the kind of experiment: Spore outgrowth (color change) of indicators after hydrogen peroxide plasma sterilization. Type of assay: cell-based. The settings on record: 1–22 min diffusion. As to the method: as §1, §2, §3, §4
as §2, with “7.” for “6.”
as §2, with “8.” for “6.”, “chamber. […]” for “chamber.”

[5] abbreviates: Example 4, 50 mg/ml coating, 7–18 min.
The mark [6] stands for this setting: Example 4, 100 mg/ml coating, 7–18 min.
Where [7] appears, read: Example 5, 50 mg/ml coating, 7–13 min.
Setting [8] is: Example 5, 100 mg/ml coating, 7–13 min.

As to Hexaglyceryl Dioleate, the “FLUORESCENCE - PERCENT POSITIVE 1 HR” value in assay [1] (setting [5]) amounted to 0%; in assay [1] (setting [6]) it was 0%; in assay [3] (Example 6, 50 mg/ml coating) it was 66.7%. Besides, the “FLUORESCENCE - PERCENT POSITIVE 2 HR” value in assay [1] (setting [5]) stood at 0%; in assay [1] (setting [6]), 0%; in assay [3] (Example 6, 50 mg/ml coating), 100%. In addition, the “FLUORESCENCE - PERCENT POSITIVE 3 HR” value in assay [1] (setting [5]) was found to be 0%; in assay [1] (setting [6]) it was 0%; in assay [3] (Example 6, 50 mg/ml coating), 100%. Further, the “FLUORESCENCE - PERCENT POSITIVE 4 HR” value came out at 0% in assay [1] (setting [5]); 0% in assay [1] (setting [6]); 100% in assay [3] (Example 6, 50 mg/ml coating). For the same substance, the “NO. GROWTH POSITIVE 168 HR” value in assay [2] (setting [5]) worked out at 7; in assay [2] (setting [6]), 23; in assay [4] (Example 6, 50 mg/ml coating), 6. Further, the “FLUORESCENCE - PERCENT POSITIVE 5 HR” value in assay [3] (Example 6, 50 mg/ml coating) is listed as 100%.

For “polyoxyethylene (20) sorbitan monostearate [POE(20) Sorbitan Monostearate]”, the “FLUORESCENCE - PERCENT POSITIVE 1 HR” value was found to be 0% in assay [1] (setting [7]); 0% in assay [1] (setting [8]); 100% in assay [3] (Example 7, 50 mg/ml coating); 50% in assay [3] (Example 7, 100 mg/ml coating). Besides, the “FLUORESCENCE - PERCENT POSITIVE 2 HR” value in assay [1] (setting [7]) was 0%; in assay [1] (setting [8]), 0%; in assay [3] (Example 7, 50 mg/ml coating), 100%; in assay [3] (Example 7, 100 mg/ml coating), 50%. Further, the “FLUORESCENCE - PERCENT POSITIVE 3 HR” value is listed as 0% in assay [1] (setting [7]); 0% in assay [1] (setting [8]); 100% in assay [3] (Example 7, 50 mg/ml coating); 62.5% in assay [3] (Example 7, 100 mg/ml coating). In addition, the “FLUORESCENCE - PERCENT POSITIVE 4 HR” value in assay [1] (setting [7]) amounted to 0%; in assay [1] (setting [8]), 0%; in assay [3] (Example 7, 50 mg/ml coating), 100%; in assay [3] (Example 7, 100 mg/ml coating), 75%. Also, the “NO. GROWTH POSITIVE 168 HR” value in assay [2] (setting [7]) was 5; in assay [2] (setting [8]) it was 2; in assay [4] (Example 7, 50 mg/ml coating), 6; in assay [4] (Example 7, 100 mg/ml coating), 8. Besides, in assay [3] (2–3 hours after exposure), the “accuracy of sterilization indicators compared to indicators made with untreated spores” value is reported as “improved”. For the same substance, the “FLUORESCENCE - PERCENT POSITIVE 5 HR” value was 100% in assay [3] (Example 7, 50 mg/ml coating) and 75% in assay [3] (Example 7, 100 mg/ml coating).

Take Tetraglyceryl Monooleate: the “accuracy of sterilization indicators compared to indicators made with untreated spores” value in assay [1] and in assay [3] (1–3 hours after exposure) was “improved” each time. Moreover, the “FLUORESCENCE - PERCENT POSITIVE 1 HR” value in assay [1] (setting [5]) was determined as 0.0%; in assay [1] (setting [6]) it was 57.1%; in assay [3] (Example 6, 50 mg/ml coating) it was 76.6%. In addition, the “FLUORESCENCE - PERCENT POSITIVE 2 HR” value in assay [1] (setting [5]) is listed as 52.9%; in assay [1] (setting [6]), 100.0%; in assay [3] (Example 6, 50 mg/ml coating) it was 90.9%. For the same substance, the “FLUORESCENCE - PERCENT POSITIVE 3 HR” value was 52.9% in assay [1] (setting [5]); 100.0% in assay [1] (setting [6]); 100% in assay [3] (Example 6, 50 mg/ml coating). The “FLUORESCENCE - PERCENT POSITIVE 4 HR” value in assay [1] (setting [5]) was 58.8%; in assay [1] (setting [6]), 100.0%; in assay [3] (Example 6, 50 mg/ml coating), 100%. For the same substance, the “NO. GROWTH POSITIVE 168 HR” value was found to be 17 in assay [2] (setting [5]); 35 in assay [2] (setting [6]); 11 in assay [4] (Example 6, 50 mg/ml coating). The “FLUORESCENCE - PERCENT POSITIVE 5 HR” value in assay [3] (Example 6, 50 mg/ml coating) is listed as 100%.

For Hexaglyceryl Polyricinolate, the “FLUORESCENCE - PERCENT POSITIVE 1 HR” value is on record as 0% in assay [1] (setting [5]); 9.7% in assay [1] (setting [6]); 83.3% in assay [3] (Example 7, 50 mg/ml coating). Besides, the “FLUORESCENCE - PERCENT POSITIVE 2 HR” value in assay [1] (setting [5]) is 13.0%; in assay [1] (setting [6]), 19.4%; in assay [3] (Example 7, 50 mg/ml coating), 91.7%. The “FLUORESCENCE - PERCENT POSITIVE 3 HR” value in assay [1] (setting [5]) came out at 52.2%; in assay [1] (setting [6]) it was 32.3%; in assay [3] (Example 7, 50 mg/ml coating), 91.7%. Moreover, the “FLUORESCENCE - PERCENT POSITIVE 4 HR” value came out at 56.5% in assay [1] (setting [5]); 45.2% in assay [1] (setting [6]); 91.7% in assay [3] (Example 7, 50 mg/ml coating). The “NO. GROWTH POSITIVE 168 HR” value in assay [2] (setting [5]) was 23; in assay [2] (setting [6]), 31; in assay [4] (Example 7, 50 mg/ml coating) it was 12. Further, in assay [3] (Example 7, 50 mg/ml coating), the “FLUORESCENCE - PERCENT POSITIVE 5 HR” value is recorded as 91.7%.

Turning to Decaglyceryl Trioleate, in assay [1] (setting [5]), the “FLUORESCENCE - PERCENT POSITIVE 1 HR” value is listed as 0.0%, the “FLUORESCENCE - PERCENT POSITIVE 2 HR” value was determined as 21.1%, the “FLUORESCENCE - PERCENT POSITIVE 3 HR” value was determined as 47.4% and the “FLUORESCENCE - PERCENT POSITIVE 4 HR” value was 68.4%. Besides, in assay [1] (setting [6]), the “FLUORESCENCE - PERCENT POSITIVE 1 HR” value is given as 23.1%, the “FLUORESCENCE - PERCENT POSITIVE 2 HR” value was 50.0%, the “FLUORESCENCE - PERCENT POSITIVE 3 HR” value was found to be 73.1% and the “FLUORESCENCE - PERCENT POSITIVE 4 HR” value is 92.3%. In addition, the “NO. GROWTH POSITIVE 168 HR” value in assay [2] (setting [5]) stood at 19. For the same substance, the “NO. GROWTH POSITIVE 168 HR” value in assay [2] (setting [6]) is 26. In assay [3] (Example 6, 50 mg/ml coating), the “FLUORESCENCE - PERCENT POSITIVE 1 HR” value is 85.0%, the “FLUORESCENCE - PERCENT POSITIVE 2 HR” value came out at 97.5%, the “FLUORESCENCE - PERCENT POSITIVE 3 HR” value came out at 100% and the “FLUORESCENCE - PERCENT POSITIVE 4 HR” value is given as 100%. In addition, the “FLUORESCENCE - PERCENT POSITIVE 5 HR” value in assay [3] (Example 6, 50 mg/ml coating) is listed as 100%. Besides, the “NO. GROWTH POSITIVE 168 HR” value in assay [4] (Example 6, 50 mg/ml coating) was 40.

As for Sodium POE(8) Oleyl Ether Phosphate, the “FLUORESCENCE - PERCENT POSITIVE 1 HR” value came out at 0% in assay [1] (setting [7]); 0% in assay [1] (setting [8]); 0% in assay [3] (Example 8, 50 mg/ml coating); 0% in assay [3] (Example 8, 100 mg/ml coating). Besides, the “FLUORESCENCE - PERCENT POSITIVE 2 HR” value came to 0% in assay [1] (setting [7]); 0% in assay [1] (setting [8]); 0% in assay [3] (Example 8, 50 mg/ml coating); 0% in assay [3] (Example 8, 100 mg/ml coating). The “FLUORESCENCE - PERCENT POSITIVE 3 HR” value in assay [1] (setting [7]) was determined as 0%; in assay [1] (setting [8]), 0%; in assay [3] (Example 8, 50 mg/ml coating) it was 0%; in assay [3] (Example 8, 100 mg/ml coating), 0%. In addition, the “FLUORESCENCE - PERCENT POSITIVE 4 HR” value in assay [1] (setting [7]) was 0%; in assay [1] (setting [8]), 0%; in assay [3] (Example 8, 50 mg/ml coating) it was 0%; in assay [3] (Example 8, 100 mg/ml coating), 0%. Besides, the “NO. GROWTH POSITIVE 168 HR” value in assay [2] (setting [7]) worked out at 6; in assay [2] (setting [8]) it was 3; in assay [4] (Example 8, 50 mg/ml coating) it was 0; in assay [4] (Example 8, 100 mg/ml coating) it was 0. Besides, the “FLUORESCENCE - PERCENT POSITIVE 5 HR” value in assay [3] (Example 8, 50 mg/ml coating) came out at 0%; in assay [3] (Example 8, 100 mg/ml coating), 0%.
